In one data set the target is T1, cNLRX1 (wild type) (Homo sapiens, UniProt Q86UT6).
T1 construct: cNLRX1 (AA 667–970) was cloned into pPinkHC-Alpha-SDK; polyhistidine (6x); made in house; host or cells: Pichia pastoris (Strain 4: ade2, prb1, pep4)
In words: SPR (Biacore T200) direct binding to immobilized cNLRX1 wild type. Particulars: for kon: NLRX1: WT, read-out: ka. How it is done: White colonies on drop adenine media were screened for protein expression via small-scale induction and both pellets and supernatants were screened for expression via western blot using an anti-polyhistidine (6x) antibody (Immunology Consultants Laboratory, Inc). […] Every 24 hours post induction cells were fed 10 mL of methanol and 10% filter sterilized sorbitol for 4 days post induction. Cells were subsequently harvested at 10,000 x g for 15 min and were either used immediately or stored at -80°C.
Cells were re-suspended in 40 mL of ice-cold lysis buffer (50mM Sodium Phosphate, 200mM sodium chloride, 25mM Sucrose, 0.1% T-100, pH = 7.2) and sonicated 8 times at max amplitude using a 15 sec ON 45 sec OFF cycle. Lysed cells were centrifuged at 15,000 x g for 30 min at 4°C. Supernatant were loaded onto a 150 mL Super-loop and purified using a programmed immobilized metal affinity chromatography gradient protocol on the AKTA prime plus. Bound protein was washed with 40 column volumes of wash buffer (50 mM sodium phosphate buffer, 300 mM sodium chloride, 20 mM imidazole, pH 8.0) and eluted in 1 mL fractions over a 0.02-1M imidazole 40 mL gradient. Purity was assessed via SDS-PAGE. Proteins were further purified via gel filtration chromoatograhy using a Superdex75 column (16/600) in 50 mM sodium phosphate, 300 mM sodium chloride pH 8.0. […] Protein was dialyzed (1:1000) twice at 4°C for a minimum of 8 hours in appropriate buffers for downstream assays.
(§1) Direct binding experiments were performed via the Biacore T200 Surface Plasmon Resonance (SPR) Technology (Georgetown University). […] The cNLRX1 was immobilized to a CM4 or CM5 chip by amine coupling method. Two adjacent surfaces were activated by injection of a 1:1 (v:v) mixture of 0.1 M N-Hydroxysuccinimide (NHS) and 0.4 M 1-Ethyl-3-(3-dimethyl-aminopropyl)-carbodiimide hydrochloride (EDC) for 720 seconds. Experimental flow cell was then injected with the cNLRX1 that was diluted in 10 mM pH 4.0 sodium acetate buffer to a final concentration of 25 μg/mL. Both experimental and the reference flow cells were inactivated by injection of 1M Ethanolamine-HCl pH 8.0 for 720 seconds.
(§2) Negative control compound, 1,14-bis (3,b-dimethoxypheny1)-tetradecane, was tested at a concentration of 20 μM. Injection time was 60 seconds and dissociation time was 300 seconds. […] Data was analyzed by using the BiaEvaluation software (GE Healthcare) with 1:1 binding model for steady state affinity. Raw data was exported and graphed using Prizm for Mac v5.0d and excel.
In general terms: Surface plasmon resonance follows binding to a sensor surface in real time, without labels.

For data set [1], the system named is NF-κB p65 activity in BMDMs from wild type and Nlrx1-/- mice. In words: NF-κB p65 ELISA (TransAM) on LPS-stimulated bone marrow derived macrophages. To be noted: LPS 1μg/ml 12 hours, then 40 μM compound 12 hours. The format is cell-based, mouse. As for the experimental part:
Bone marrow derived macrophages (BMDM)s were isolated from hind legs of wild type and Nlrx1-/- mice in sterile conditions and cultured for 7 days as described. […] Nuclear extraction was performed on colon homogenates using the Active Motif Nuclear Extraction Kit (Carlsbad, CA) as previously described. ELISA was performed on nuclear fractions using the Active Motif TransAM® NF-κB p65 kit according to the manufacturer’s instructions.
The NF-κB activation by NLRX1 ligands was detected and quantified by using the Trans-AM™ NF-κB p65 ELISA-based assay (Active Motif, Carlsbad, CA) as described in the manual of the Active Motif TransAM® NF-κB p65 kit.
Fig 4 Effect of NLRX1 disruption on NF-κB activation in Bone marrow derived macrophage (BMDM). […] Nuclear extraction was performed on colon homogenates using the Active Motif Nuclear Extraction Kit (Carlsbad, CA). ELISA was performed on both cytoplasmic and nuclear fractions using the Active Motif TransAM® NF-κB p65 kit according to the manufacturer’s instructions. Letter superscripts indicate significant (P-value < 0.05) differences by ANOVA.
(In general: In an ELISA, binding on a coated surface is turned into a signal by an enzyme label.)

Data set [2] has as its target T2, cNLRX1 ASP677, PHE680, PHE681, and GLU684 to alanine mutant (Mutant) (Homo sapiens, UniProt Q86UT6, D677A/E684A/F680A/F681A).
T2 construct: cNLRX1 (AA 667–970) was cloned into pPinkHC-Alpha-SDK; polyhistidine (6x); made in house
In words: SPR (Biacore T200) direct binding to immobilized Mutant cNLRX1. How it is done: as §1, §2

Data set [3] deals with DSS-induced colitis and spontaneous pan-enteritis in IL-10−/− mice. Particulars: cited from earlier work.
The next data set deals with PPARγ. To be noted: cited from earlier work.
In another data set the test system is DSS-induced colitis. Particulars: for disease activity: 8% DSS six days, PUA 40 mg/kg oral gavage daily vs PBS. As for the experimental part: C57BL/6J wild-type (WT) and Nlrx1-/- mice (n = 10) ranging from 8–10 weeks of age were administered 8% DSS (average […] molecular weight) in drinking water for six days. Control mice received tap water. […] On day 6, mice were euthanized via carbon dioxide narcosis with secondary cervical dislocation. All mice were weighed and scored daily. Clinical scores were based on physical appearance (0–3), fecal consistency (0–3), presence of rectal bleeding (0–4), and weight loss (0–3) and assigned a compounded score for overall disease activity (0–4).
Total RNA was isolated from whole mouse colon using a Qiagen (Germantown, MD) RNA isolation mini kit. Complementary DNA (cDNA) was generated from each sample (1 μg RNA) using the iScript cDNA synthesis kit (Bio-Rad). Standards were produced through a polymerase chain reaction on the cDNA with Taq DNA polymerase from Invitrogen. The amplicon was purified using the Mini-Elute PCR purification kit from Qiagen. Expression levels were obtained through quantitative real-time PCR on a Bio-Rad (Hercules, CA) CFX 96 Thermal Cycler using the Bio-Rad SYBR Green Supermix. For analysis, the starting amount of anti-microbial peptide cDNA was compared to that of beta-actin, as a control. cDNA concentrations for genes of interest were examined by RT-PCR as described.
Colonic samples were fixed in 10% buffered formalin, embedded in paraffin, processed routinely and sectioned at 5 μm. Sections were stained with hematoxylin and eosin (H&E) and then examined and graded using an Olympus microscope (Olympus America, Center Valley, PA) and ImagePro software. Sections were graded for leukocytic infiltration (0–4), epithelial erosion (0–4) and mucosal thickening (0–4).

Data set [4] concerns the molecule itself. The data set is described as follows: SEC; Superdex 75 column (16/600) at 1 ml/min in 50 mM sodium phosphate, 300 mM sodium chloride, pH 8; blue dextran run alongside. A general note: In gel filtration, larger molecules generally elute earlier.
Setting [5] is: Nlrx1-/- mice, day six of DSS, PUA 40 mg/kg oral gavage.
[6] abbreviates: WT mice, day six of DSS, PUA 40 mg/kg oral gavage.

“Also recorded” adds a separate entry of the source. Where two headings read alike, the source gives them in different places.

T2 sequence (Q86UT6 667-970 D677A/F680A/F681A/E684A limits assumed): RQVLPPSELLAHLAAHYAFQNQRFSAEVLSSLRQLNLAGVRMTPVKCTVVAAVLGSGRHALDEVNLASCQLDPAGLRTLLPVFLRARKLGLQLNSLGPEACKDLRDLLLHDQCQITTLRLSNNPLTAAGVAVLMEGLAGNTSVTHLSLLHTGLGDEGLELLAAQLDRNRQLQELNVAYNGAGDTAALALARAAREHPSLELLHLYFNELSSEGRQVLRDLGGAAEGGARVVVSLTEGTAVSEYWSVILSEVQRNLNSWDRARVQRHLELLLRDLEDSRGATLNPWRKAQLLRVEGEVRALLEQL

For `COc1cc(CCCCCCCCCCCCCCc2cc(OC)cc(OC)c2)cc(OC)c1` [1,14-bis (3,b-dimethoxypheny1)-tetradecane, reference compound], the “binding to cNLRX1 by SPR (in words)” value at cNLRX1 (wild type) (ssRNA 0.5-8 μM, negative control injected at 20 μM) is recorded as “failed to bind cNLRX1; also recorded: No binding was observed”.
For orientation: Kd means the constant that tells how readily two partners part at equilibrium. Turning to `CC/C=C\C/C=C\C/C=C\C/C=C\C/C=C\C/C=C\CCC(=O)O` [DHA, docosahexaenoic acid], the Kd on cNLRX1 (wild type) (SPR, cNLRX1 WT, read-out: equilibrium constant of dissociation (KD)) was 2.3 µM. The NF-κB activity result in data set [1] (Nlrx1-/- BMDMs) is reported as “abrogates the effect”; in data set [1] (wild type BMDMs), “suppressed the NF-κB activity”.
As to `CCCCC=CC=CC=CCCCCCCCC(=O)O` [ESA, eleostearic acid], the “equilibrium constant of dissociation (KD)” value in data set [2] was 170 µM. For the same molecule, in data set [3], the “effect on gut inflammation” value was “able to regulate gut inflammation”. Further, the affinity on cNLRX1 (wild type), expressed as Kd, was 13.3 µM. Besides, the kon on cNLRX1 (wild type) (SPR) is 3420 M⁻¹ s⁻¹.
Turning to `CCCC\C=C/C=C/C=C\CCCCCCCC(=O)O` [PUA, punicic acid], the “equilibrium constant of dissociation (KD)” value in data set [2] was 338 µM. Moreover, the effect on colitis entry in data set [3] (DSS-induced colitis and spontaneous pan-enteritis in IL-10−/− mice) was “ameliorate DSS-induced colitis and spontaneous pan-enteritis”. In addition, the “binding and activation of PPARγ” value in the data set with PPARγ is “robustly bind and activate PPARγ”. The molecule also gave a Kd at cNLRX1 (wild type) of 14.6 µM. The kon on cNLRX1 (wild type) (SPR) amounted to 2320 M⁻¹ s⁻¹. In addition, the disease activity result in the data set with DSS-induced colitis (Nlrx1-/- mice) was “no observable inhibition of colitis”; in the data set on DSS-induced colitis (WT mice), “significant symptom regulation”. Further, the “TNFα mRNA expression in whole colon” value in the data set on DSS-induced colitis (setting [5]) was “overall unaffected”; in the data set with DSS-induced colitis (setting [6]), “significantly lower”. For the same molecule, the “colon histopathology (inflammatory amelioration)” value in the data set with DSS-induced colitis (setting [5]) is on record as “failed to show any inflammatory amelioration”. For the same molecule, the “colon histopathology scores (epithelial erosion, leukocytic infiltration, mucosal thickening)” value in the data set on DSS-induced colitis (setting [6]) is on record as “significantly lower scores”. Besides, the NF-κB activity entry in data set [1] (Nlrx1-/- BMDMs) was “abrogates the effect”; in data set [1] (wild type BMDMs), “suppressed the NF-κB activity”.

B1: C-terminal fragment of the human NLRX1 (cNLRX1), AA 667-970 (domain or fragment, UniProt Q86UT6 667-970, looked up)
chain: RQVLPPSELLDHLFFHYEFQNQRFSAEVLSSLRQLNLAGVRMTPVKCTVVAAVLGSGRHALDEVNLASCQLDPAGLRTLLPVFLRARKLGLQLNSLGPEACKDLRDLLLHDQCQITTLRLSNNPLTAAGVAVLMEGLAGNTSVTHLSLLHTGLGDEGLELLAAQLDRNRQLQELNVAYNGAGDTAALALARAAREHPSLELLHLYFNELSSEGRQVLRDLGGAAEGGARVVVSLTEGTAVSEYWSVILSEVQRNLNSWDRARVQRHLELLLRDLEDSRGATLNPWRKAQLLRVEGEVRALLEQL
notes: NLRX1, human, C-terminal fragment, AA 667-970; Cloned into pPinkHC-Alpha-SDK; The vector may add a secretion signal, but the protein was purified from lysed cells; also called cNLRX1 wildtype; cNLRX1 (WT)
Take B1: in data set [4], the binding result is recorded as “binds”.

The values are drawn from publication PMC4694766, “Modeling-Enabled Characterization of Novel NLRX1 Ligands” (PLoS ONE, 2015).
